Read-outs that look alike come from different tables or passages of the source.
Legend:
P388 leukemia = test: Antitumor activity in CDF1 mice with intraperitoneally transplanted P388 leukemia, i.v. administration, 30-day survival; assay type: in vivo; settings: for Increase in life span T/C (%): days 1 and 5, saline control = 100%; for ED (T/C 130%): Mus musculus, 720 h
in vivo = settings: mouse, iv
[1] = Stability of M-R20X3 during measurements (1) through (4); assay type: physicochemical

With `COc1cccc2c1C(=O)c1c(O)c3c(c(O)c1C2=O)C[C@@](O)(C(=O)CO)C[C@@H]3O[C@H]1C[C@H](N)[C@H](O)[C@H](C)O1` [Adriamycin, reference compound] the “Increase in life span T/C (%)” value (P388 leukemia; 1 mg/kg/day i.v.) was 103%, the “Increase in life span T/C (%)” value (P388 leukemia; 2 mg/kg/day i.v.) was 119% and the “Increase in life span T/C (%)” value (P388 leukemia; 4 mg/kg/day i.v.) was 133%. For the same molecule, the “Increase in life span T/C (%)” value (P388 leukemia; 8 mg/kg/day i.v.) was 165% and the “Increase in life span T/C (%)” value (P388 leukemia; 12 mg/kg/day i.v.) was 244%.
In the case of `CC[C@@]1(O)C[C@H](O[C@H]2C[C@H](N3CCOCC3)[C@H](O)[C@H](C)O2)c2c(O)c3c(c(O)c2C1O)C(=O)c1cccc(O)c1C3=O` (some centres unmarked) [M-R20X2, 3'-deamino-3'-(4-morpholinyl)-13-deoxo-10-hydroxycarminomycin], the “Solubility (soluble in)” value (acidic water, basic water, methanol, ethanol, propanol, acetone, ethyl acetate, and chloroform) is reported as “Soluble”, the “Solubility (insoluble in)” value (water, hexane, cyclohexane, diethyl ether, and petroleum ether) is reported as “Insoluble” and the LD50 (in vivo) is reported as 3.55 mg/kg. It also gave an ED (T/C 130%) (P388 leukemia; P388, iv, read-out: Dose for T/C = 130% (mg/kg/day)) of 0.43 mg/kg/day and a Therapeutic index (P388 leukemia; mouse, in vivo, iv) of 4.7.
With `CC[C@@]1(O)C[C@H](O[C@H]2C[C@H](N3CCOCC3)[C@H](O)[C@H](C)O2)c2c(O)c3c(c(O)c2[C@H]1C(=O)O)C(=O)c1cccc(O)c1C3=O` [M-R20X3, 3'-deamino-3'-(4-morpholinyl)-13-deoxo-10-hydroxycarbonylcarminomycin] the “Stability (lability)” value [1] was “extremely labile” and the “Decomposition after completion of the measurements” value ([1]; measurements (1) through (4) carried out quickly) was “no decomposition was observed”.
For `CC[C@]1(O)Cc2c(O)c3c(c(O)c2[C@@H](O[C@H]2C[C@H](N4CCOCC4)[C@H](O)[C@H](C)O2)C1)C(=O)c1c(O)cccc1C3=O` [M-R20X, 3'-deamino-3'-(4-morpholinyl)-13-deoxocarminomycin], the LD50 (in vivo) was 12.3 mg/kg and the ED (T/C 130%) (P388 leukemia; iv, i.v., P388 leukemia in CDF1 mice, read-out: Dose for T/C = 130%) was 2.5 mg/kg/day.

— patent US4833241A, “Anthracycline compound” (Kirin Beer Kabushiki Kaisha, priority 1986, dated 1989)
